From patent publication US20210163532A1, “NOVEL M[…] PEPTIDES” (University of Florida Research Foundation, Incorporated, priority 2018, published 2021)
Entries after “also recorded” stand apart in the source; their conditions may differ. Where a SMILES comes first, the peptide text is derived from it. [ ]: non-standard residue; d: D form. dNMeA = CN[C@H](C)C(=O)O; Sar = CNCC(=O)O

How the values were obtained:
mice [1] = test: Reinstatement of extinguished ethanol conditioned place preference; format: in vivo, mouse; conditions: 0.01 nmol i.c.v.
Text: Similarly mice were place-conditioned using ethanol in a conditioned place-preference assay [Sperling, R. E., Gomes, S. M., Sypek, E. I., Carey, A. N. and McLaughlin, J. P., 2010. Endogenous kappa-opioid mediation of stress-induced potentiation of ethanol-conditioned place preference and self-administration. Psychopharmacology, 210, 199-209] with a biased conditioning paradigm (see McLaughlin, J. P., Ganno M. L., Eans, S. O., Mizrachi, E. and Paris, J. P., 2014. HIV-1 Tat protein exposure potentiates ethanol reward and reinstates extinguished ethanol-conditioned place preference. Current HIV Research, 12(6), 415-423). […] Mice were then pretreated once daily for two days with vehicle (50% DMSO in 0.9% saline, i.c.v.) or cyclo[D-Phe-Pro-Sar-Phe] (0.01 nmol, i.c.v.) and exposed to two days of forced swim stress or an additional cycle of ethanol place conditioning as described above.

μ opioid receptor = biological target: T1, μ opioid receptor (Mus musculus, UniProt P42866); test: 55° C. warm-water tail-withdrawal assay, antagonism of morphine-mediated antinociception; format: in vivo; conditions: 30 nmol i.c.v., 2.5 h pretreatment
T1 construct: mice are pretreated with the compound of the invention; from tissue; host or cells: living C57Bl/6 mice (whole animal)

mice [2] = test: Reinstatement of extinguished morphine conditioned place preference; conditions: for stress-induced reinstatement of morphine CPP, peripheral pretreatment: 10 mg/kg i.p., nor-BNI once 24 h prior, cyclo[D-Phe-Pro-Sar-Phe] twice, 2.5 h prior to forced swimming daily
KOR = biological target: T2, KOR (Mus musculus, UniProt P33534); test: 55° C. warm-water tail-withdrawal assay, antagonism of U50,488-induced antinociception; format: in vivo; conditions: for KOR antagonism: i.c.v. pretreatment, U50,488 10 mg/kg i.p.
T2 construct: from tissue; host or cells: living C57Bl/6 mice (whole animal; CNS and periphery)

δ opioid receptor = biological target: T3, δ opioid receptor (Mus musculus, UniProt P32300); test: 55° C. warm-water tail-withdrawal assay, antagonism of SNC80-mediated antinociception; format: in vivo; conditions: 30 nmol i.c.v., 2.5 h pretreatment
T3 construct: from tissue; host or cells: living C57Bl/6 mice (whole animal)

MOR KO mice = test: Opioid receptor selectivity of antinociception, tail-withdrawal assay in MOR KO mice; format: in vivo, mouse; conditions: i.c.v.
KOR KO mice = conditions: 200 nmol i.c.v.; β-FNA 5 mg/kg s.c. −24 h
[3] = In vitro metabolic stability in mouse liver microsomes
C57Bl/6 mice = test: Reinstatement of extinguished cocaine conditioned place preference
[4] = liver microsomes, apparent t1/2 in mouse liver microsomes, mouse liver microsomes, 37° C.

T2 sequence (P33534 whole entry): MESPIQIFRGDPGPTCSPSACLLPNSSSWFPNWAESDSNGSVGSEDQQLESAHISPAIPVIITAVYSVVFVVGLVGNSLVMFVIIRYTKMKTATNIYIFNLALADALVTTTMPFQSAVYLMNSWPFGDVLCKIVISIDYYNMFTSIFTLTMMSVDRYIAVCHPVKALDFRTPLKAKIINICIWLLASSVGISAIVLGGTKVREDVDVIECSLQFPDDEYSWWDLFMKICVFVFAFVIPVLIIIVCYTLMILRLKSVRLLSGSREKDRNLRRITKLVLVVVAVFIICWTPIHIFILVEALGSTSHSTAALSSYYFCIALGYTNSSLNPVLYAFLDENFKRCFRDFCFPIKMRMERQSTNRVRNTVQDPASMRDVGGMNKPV
T1 sequence (P42866 whole entry): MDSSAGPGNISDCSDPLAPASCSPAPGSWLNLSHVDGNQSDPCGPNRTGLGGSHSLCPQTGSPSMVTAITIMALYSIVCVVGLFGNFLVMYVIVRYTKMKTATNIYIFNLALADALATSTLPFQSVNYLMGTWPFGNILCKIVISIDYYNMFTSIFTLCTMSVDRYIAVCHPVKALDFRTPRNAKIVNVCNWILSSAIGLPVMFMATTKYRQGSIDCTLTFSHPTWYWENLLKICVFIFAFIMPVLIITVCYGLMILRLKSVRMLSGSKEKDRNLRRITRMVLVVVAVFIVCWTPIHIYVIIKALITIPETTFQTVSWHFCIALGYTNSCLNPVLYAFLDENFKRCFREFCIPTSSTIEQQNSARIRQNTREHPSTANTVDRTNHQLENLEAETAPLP
T3 sequence (P32300 whole entry): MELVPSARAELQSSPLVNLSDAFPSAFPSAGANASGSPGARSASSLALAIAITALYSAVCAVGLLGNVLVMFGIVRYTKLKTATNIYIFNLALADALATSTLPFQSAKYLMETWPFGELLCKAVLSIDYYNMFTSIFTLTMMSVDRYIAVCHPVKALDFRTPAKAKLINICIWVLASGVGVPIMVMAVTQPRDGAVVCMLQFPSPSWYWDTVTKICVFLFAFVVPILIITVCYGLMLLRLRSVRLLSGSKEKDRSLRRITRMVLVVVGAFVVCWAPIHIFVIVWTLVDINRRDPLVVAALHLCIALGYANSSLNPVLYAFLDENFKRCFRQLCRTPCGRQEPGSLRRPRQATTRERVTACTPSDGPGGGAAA

Compound: CN1CC(=O)N[C@@H](Cc2ccccc2)C(=O)N[C@H](Cc2ccccc2)C(=O)N2CCC[C@H]2C1=O [cyclo[D-Phe-Pro-Sar-Phe]] (cyclo(F[dF]P[Sar]))
- stress- and ethanol-induced reinstatement of ethanol CPP (FIG. 11) (mice [1]): prevented both stress- and ethanol-induced reinstatement of ethanol CPP
- stress-induced reinstatement of ethanol CPP (mice [1]; −2 h): prevented stress-induced reinstatement of ethanol CPP
- morphine-mediated antinociception after pretreatment (μ opioid receptor): 100±0%
- morphine-induced reinstatement of morphine-CPP, lower dose (mice [2]; 0.01 nmol i.c.v.): did not have significant effects
- reinstatement of extinguished morphine CPP by compound alone (mice [2]; 0.01 nmol i.c.v.): did not directly reinstate extinguished CPP
- stress-induced reinstatement of morphine CPP (mice [2]; 0.01 nmol i.c.v., −2.5 h): prevented stress-induced reinstatement of morphine CPP
- morphine-induced reinstatement of morphine-CPP (mice [2]; 0.03 nmol i.c.v., 5 min pretreatment): prevented morphine-induced reinstatement of morphine-CPP
- stress-induced reinstatement of morphine CPP, peripheral pretreatment (mice [2]): prevented stress-induced reinstatement
- antagonism of U50,488-induced antinociception after i.p. administration (KOR; 2.5 h pretreatment, i.p.): dose-dependent antagonism of U50,488-induced antinociception
- KOR antagonism (KOR): significantly antagonized KOR in a dose-dependent manner; also recorded: significant antagonism of only the KOR-selective agonist U50,488
- dose giving significant blockade of U50,488-induced antinociception (KOR antagonism) (KOR; i.c.v., 2.5 h pretreatment): 1 pmol
- KOR antagonism after oral administration (KOR; p.o., 2.5 h after administration): demonstrated KOR antagonism
- antagonism of centrally administered (i.c.v.) U50,488 after oral administration (KOR; p.o., U50,488 i.c.v.): dose-dependently antagonized i.c.v. U50,488
- SNC80-mediated antinociception after pretreatment (δ opioid receptor): 87.1±7.7%
- antinociception in opioid receptor KO mice (MOR KO mice; 1 nmol dose): significantly impaired only in MOR KO mice
- antinociception ED50 (and 95% C.I.) in MOR KO mice (MOR KO mice; MOR KO mice): 58.2 (17.4-558) nmol
- antinociception in KOR KO mice pretreated with MOR-selective antagonist β-FNA (KOR KO mice): completely inhibited
- half-life [3, 4]: 60 min
- cocaine-induced reinstatement of cocaine CPP (C57Bl/6 mice; 0.01 nmol i.c.v., 5 min pretreatment): prevented cocaine-induced reinstatement
- reinstatement of cocaine CPP by compound alone (C57Bl/6 mice; 0.01 nmol i.c.v., no stress or cocaine): did not induce reinstatement
- stress-induced reinstatement of cocaine CPP (C57Bl/6 mice; 0.01 nmol i.c.v., −1.5 h): prevented stress-induced reinstatement of cocaine CPP
- stress-induced reinstatement of cocaine CPP, oral (C57Bl/6 mice; 30 mg/kg and 60 mg/kg p.o., −2.5 h): prevented stress-induced reinstatement of cocaine CPP
- stress- and cocaine-induced reinstatement of CPP after oral administration (FIG. 10B) (C57Bl/6 mice; p.o.): prevented both stress- and cocaine-induced reinstatement of CPP after oral administration

Compound: Oc1ccc2c3c1O[C@H]1c4[nH]c5c(c4C[C@@]4(O)[C@@H](C2)N(CC2CC2)CC[C@]314)C[C@@]1(O)[C@H]2Cc3ccc(O)c4c3[C@@]1(CCN2CC1CC1)[C@H]5O4 [nor-BNI, nor-binaltorphimine, reference compound]
- stress-induced reinstatement of morphine CPP, peripheral pretreatment (mice [2]): prevented stress-induced reinstatement

Compound: O=C1N[C@H](Cc2c[nH]c3ccccc23)C(=O)N[C@@H](Cc2ccccc2)C(=O)N2CCC[C@@H]2C(=O)N[C@H]1Cc1ccccc1 [[D-Trp]CJ-15,208, reference compound] (cyclo(F[dP]F[dW]))
- half-life ([3]; microsomes): 11 min

Compound: C[C@@H]1C(=O)N[C@@H](Cc2ccccc2)C(=O)N[C@H](Cc2ccccc2)C(=O)N2CCC[C@H]2C(=O)N1C [cyclo[D-Phe-Pro-D-NMe-Ala-Phe]] (cyclo(F[dF]P[dNMeA]))
- KOR antagonism (KOR): did not exhibit KOR antagonist activity
- half-life [3, 4]: 12 min
